Experimental data published in ChEMBL document CHEMBL1127178, “Nucleosides and nucleotides. 117. A transition-state analogue in purine nucleotide biosynthesis: the design and synthesis of an imidazo[4,5-c]azepine nucleoside” (Bioorg Med Chem Lett, 1993).
In brackets after ≈: the same amount, converted by molar mass.

Tested on: L1210
Assay: Cytotoxicity of compound was determined in terms of effective concentration required against murine L1210 cells
Type: functional, cell-based
Conditions: Mus musculus

`O=C1NC(O)C=Cc2c1ncn2C1O[C@H](CO)C(O)[C@H]1O` (single isomer, unassigned) was tested, and the EC50 was 5 mg/L (≈ 16.8 µM).
